Experimental data: patent EP4792811A1, “S1PR4 REGULATOR COMPOUND FOR MUSCLE DISEASE TREATMENT AND APPLICATION THEREOF” (Shengyuan Zetong (Shanghai) Pharmaceutical Co., Ltd, priority 2023, dated 2025)
Changes are numbered by the printed parent chain. “Also recorded” adds a separate entry of the source.

Tests used:
[1] = molecular target: T1, S1PR4 (Homo sapiens, UniProt O95977); test: S1PR4 internalization function test in S1PR4-293T cells; type: cell-based; conditions: 1 µM, 37 °C, 1.5 hours; detected immediately, or at 5 hours or 20 hours after treatment
T1 construct: expressed in transfected cells; host or cells: 293T
T1 sequence (O95977 1-384): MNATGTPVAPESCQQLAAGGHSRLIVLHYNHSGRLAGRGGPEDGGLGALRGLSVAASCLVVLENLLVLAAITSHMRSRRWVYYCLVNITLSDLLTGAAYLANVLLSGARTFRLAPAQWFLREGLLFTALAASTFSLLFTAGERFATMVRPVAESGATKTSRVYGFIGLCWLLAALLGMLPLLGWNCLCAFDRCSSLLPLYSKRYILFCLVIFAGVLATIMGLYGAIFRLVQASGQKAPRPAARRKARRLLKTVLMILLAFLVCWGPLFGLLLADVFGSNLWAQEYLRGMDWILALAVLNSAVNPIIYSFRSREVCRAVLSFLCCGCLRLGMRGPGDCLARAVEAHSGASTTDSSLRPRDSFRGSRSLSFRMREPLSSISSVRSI
Procedure: Therefore, the recovery degree of S1PR4 after internalization caused by Compound 30 was evaluated, and the recovery effect following receptor internalization caused by Compound 30 was assessed in cells with high S1PR4 expression.

[2] = test system: Duchenne muscular dystrophy model mice; test: In vivo efficacy in Duchenne muscular dystrophy mdx mice (Compound 67); conditions: for rotarod time: Day 42; for rotarod time / grip strength: compared with the model group; for grip strength: after 42 days of treatment
Procedure: Experimental animals: A total of 18 Duchenne muscular dystrophy model mice were divided into 3 groups with 6 mice in each group.
Intragastric administration was initiated on Day 0. Body weight was measured daily during the period to adjust the drug dosage. Grip strength and rotarod tests were performed on Day 20 and Day 42. Changes in the limb grip strength, exercise duration, and muscle fibrosis/inflammation in mice were detected as indicators for evaluating drug efficacy.
(§1) The mouse was placed horizontally on the grip test board. The mouse's tail was held and pulled gently in the opposite direction without using excessive force. The tail was gradually pulled until the mouse released the grip force sensor. The maximum value recorded by the grip force sensor is the grip strength. The test was repeated for 3 times and the average value was taken.
The rotarod test was conducted on Day 0, Day 20, and Day 42 respectively. The test was performed at an accelerating speed (0-16 rpm), reaching the maximum speed after 300 seconds, with a maximum test duration of 600 seconds. The time until the animal fell off was recorded^7.
(§2) After the experiment, the tibialis anterior, extensor digitorum longus, and diaphragm of the mice were harvested, fixed, sectioned, and subjected to HE staining and Sirius Red staining to observe the degree of muscle fibrosis.

[3] = test system: LPS-induced sepsis model; test: LPS-induced sepsis myopathy (skeletal muscle atrophy) model; type: in vivo, mice; conditions: 14 days of LPS treatment
Text: Animal models of sepsis can be established by injecting exogenous toxins into animals. In this study, a sepsis model was established via intraperitoneal injection of lipopolysaccharide to observe the effects of compounds on the occurrence and development of acquired weakness. This is a widely used method for modeling sepsis.
A skeletal muscle atrophy model induced by lipopolysaccharide can simulate clinical muscle atrophy caused by sepsis.
Mice were given a single intraperitoneal injection of LPS (1 mg/kg), followed by 14 consecutive days of intraperitoneal injection of either vehicle (1% DMSO dissolved in physiological saline) or Compound 30. Body weight was measured daily. After 14 days of LPS treatment, the mice were anesthetized, and the gastrocnemius and tibialis anterior muscles were harvested.

[4] = molecular target: T2, hS1P4-R-79C (Homo sapiens, UniProt O95977, R79C); test: Tango β-arrestin recruitment assay, Tango-hS1P4-R-79C-CHO; type: cell-based; conditions: final concentration 45 µM, 9 serial dilutions at 5-fold intervals; 20 h drug treatment; luciferase readout
T2 construct: expressed in transfected cells; host or cells: CHO
T2 sequence (O95977 1-384 R79C): T1 sequence (O95977 1-384) with R79C
Text: (§3) The Tango assay detects ligand-dependent GPCR activity through the interaction between β-arrestin and GPCRs. […] The NTEV fragment and the tetracycline transactivator (tTA), an artificial transcription factor, are fused at the C-terminus of the GPCR, while the CTEV fragment is fused to human β-arrestin 2. To enhance the stability of the interaction between GPCR and β-arrestin, a short sequence from the C-terminus of the human arginine vasopressin receptor 2 (V2 tail) is inserted between the GPCR and NTEV. The V2 tail contains multiple GRK phosphorylation sites, which strengthen β-arrestin binding upon phosphorylation. The CTEV fragment carries the stabile point mutation S219P and is truncated at residue 221 to remove the autoinhibitory C-terminal tail. Meanwhile, β-arrestin 2 is truncated to lack the entire C-terminal tail (residues 383-410 deleted). This truncation confers robust stimulus-dependent receptor desensitization, thereby improving detection sensitivity compared with wild-type β-arrestin 2. The UAS reporter construct consists of upstream activating sequence (UAS) elements, a minimal CMV promoter, and a tTA-dependent luciferase reporter gene. Therefore, constructing Tango cells requires the co-transfection of the above three plasmids into host cells. Upon GPCR activation and β-arrestin recruitment, the TEV enzyme at the β-arrestin terminus cleaves tTA from the GPCR C-terminus. The released tTA initiates tTA-dependent luciferase transcription, and compound activity is ultimately determined by measuring luminescence intensity.
(§4) • 1) Tango cell line from was digested from the culture dish respectively. After cell counting, the cells were plated at a density of 10,000 cells per well with […] into a white opaque 96-well plate (add 60 µL D'Hanks to the surrounding wells), and incubated overnight (20 h) in a 5% CO2 incubator at 37°C. The cell density will reach approximately 90% the next day. • 2) After 20 h, 30 µL of serially diluted compound solution was added to each well. The control group was supplemented with 30 µL F12K complete medium. Each group had three replicate wells. • 3) Samples were collected after 20 h of drug treatment.
(§5) (All compounds were tested at a final concentration of 45 µM, with 9 serial dilutions at 5-fold intervals. 1 µM BAF-312 was used as the positive control for S1PR1, and 25 µM BAF-312 was used as the positive control for S1PR4.)

[5] = molecular target: T3, hS1P4 (Homo sapiens, UniProt O95977); test: Tango β-arrestin recruitment assay, Tango-hS1P4-CHO; type: cell-based; conditions: final concentration 45 µM, 9 serial dilutions at 5-fold intervals; 20 h drug treatment; luciferase readout
T3 construct: expressed in transfected cells; host or cells: CHO-K1
T3 sequence (O95977 1-384): T1 sequence (O95977 1-384)
Text: as §3, §4, §5
(§6) ^a β-arrestin recruitment activity based on Tango-S1PR1-CHO-K1 and Tango-S1PR4-CHO-K1 cells, expressed as mean EC50 values ± SD. ^b FLIPR assays were performed using S1PR2-CHO and S1PR5-CHO cell lines, expressed as mean EC50 values ± SD. ^c β-arrestin recruitment activity based on PathHunter CHO-K1-S1PR3 cells, expressed as mean EC50 values ± SD. Data are the mean of at least two independent determinations, reported as mean ± SD (standard deviation).

[6] = molecular target: T4, hS1P1 (Homo sapiens, UniProt P21453); test: Tango β-arrestin recruitment assay, Tango-hS1P1-CHO; type: cell-based; conditions: final concentration 45 µM, 9 serial dilutions at 5-fold intervals; 20 h drug treatment; luciferase readout
T4 construct: expressed in transfected cells; host or cells: CHO-K1
Text: as §3, §4, §5, §6

[7] = test system: S1PR4-R82C/NDUFA10-R217W double-mutant mice; test: In vivo efficacy in S1PR4-R82C/NDUFA10-R217W double-mutant muscular dystrophy mice; conditions: 1 mg/kg intragastric once daily
Procedure: Experimental Animals: A total of 34 S1PR4-R82C/NDUFA10-R217W mice were divided into 6 groups as shown below.
Intragastric administration was initiated on Day 0, and body weight was measured daily during the experiment to adjust the drug dosage. Grip strength was measured at the beginning and end of the experiment to observe motor changes in mice. Changes in the limb grip strength, serum creatine kinase content, and muscle fibrosis/inflammation in mice were detected as indicators for evaluating drug efficacy.
as §1
(§7) After the completion of administration, blood was collected via the orbital sinus, allowed to stand for 30 minutes, centrifuged at 3000 rpm at 4°C for 15 minutes, and serum was extracted, stored frozen at -20°C, and detected in accordance with the kit instructions.
as §2, with “fibrosis. The slice was subjected to immunofluorescence staining with F4/80 to observe the level of muscle inflammation.” for “fibrosis.”

[8] = test system: Duchenne muscular dystrophy model mice; test: In vivo pharmacodynamic test in Duchenne muscular dystrophy model mice (Compound 30); conditions: 1 mg/kg intragastric once daily
Procedure: Experimental Animals: A total of 35 Duchenne muscular dystrophy model mice were divided into 6 groups as shown below.
Intragastric administration was initiated from Day 0. Body weight was measured daily during the experiment to adjust the drug dosage. Grip strength tests were performed every 2 days to observe changes in the mice's grip strength until the experiment concluded on Day 21. Changes in the limb grip strength, serum creatine kinase content, and muscle fibrosis/inflammation in the mice were detected as indicators for evaluating drug efficacy.
as §1, §7
as §2, with “fibrosis. The slice was subjected to immunofluorescence staining with F4/80 to observe the level of muscle inflammation.” for “fibrosis.”

[9] = 3 mg/kg intragastric once daily
[10] = 20 mg/kg intragastric once daily

T4 sequence (P21453 whole entry): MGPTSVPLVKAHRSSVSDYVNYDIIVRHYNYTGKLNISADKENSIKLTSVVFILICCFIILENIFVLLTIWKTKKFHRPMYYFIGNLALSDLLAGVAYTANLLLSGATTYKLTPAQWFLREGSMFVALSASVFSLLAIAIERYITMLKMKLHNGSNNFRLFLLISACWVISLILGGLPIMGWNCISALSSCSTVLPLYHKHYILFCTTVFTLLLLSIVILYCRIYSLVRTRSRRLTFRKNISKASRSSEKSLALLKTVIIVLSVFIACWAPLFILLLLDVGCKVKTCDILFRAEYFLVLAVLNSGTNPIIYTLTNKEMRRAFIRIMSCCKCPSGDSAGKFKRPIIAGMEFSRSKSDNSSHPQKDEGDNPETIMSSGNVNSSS

Structure (SMILES): CCc1cc(/C(C)=N/OCc2ccc(-c3cnc(F)cn3)c(C)c2)ccc1CN1CC[C@H](C(=O)O)C1 [Compound 67, (S, E)-1-(2-ethyl-4-(1-(((4-(5-fluoropyrazin-2-yl)-3-methylbenzyl)oxy)imino)ethyl)benzyl)pyrrolidine-3-carboxylic acid]
- S1PR4 internalization (expression of S1PR4 receptor on the cell surface) [1]: sustained internalization capacity
- collagen deposition (collagen area ratio) [2, 9]: significantly reduced collagen deposition
- macrophage levels (F4/80 macrophage marker, muscle inflammation) [2, 9]: significantly reduced macrophage levels
- number of centrally nucleated fibers (HE staining) [2, 9]: significantly reduced
- serum creatine kinase level [2, 9]: significantly reduced the creatine kinase level
- rotarod time [2, 9]: increased
- grip strength [2, 9]: marked increase; also recorded: significantly elevated
- grip strength ([2]; 3 mg/kg intragastric once daily, listed as compound 67): increased significantly
- atrophy of the tibialis anterior muscle ([3]; high dose (Compound 30: 10mg/kg intraperitoneal once daily)): significantly inhibited
- atrophy of the tibialis anterior muscle ([3]; medium dose (Compound 30: 1mg/kg intraperitoneal once daily)): significantly inhibited

Structure (SMILES): C/C(=N\OCc1ccc(C2CCCCC2)c(C(F)(F)F)c1)c1ccc(CN2CC(C(=O)O)C2)c(C(F)(F)F)c1 [Compound 19]
- EC50 [4]: 121 ± 30.4 nM
- EC50 [5]: 564 ± 184 nM
- EC50 [6]: 8.63 ± 0.39 nM

Structure (SMILES): C[C@@H]1C[C@H]2[C@@H]3CCC4=CC(=O)C=C[C@]4(C)C3=CC[C@]2(C)[C@@]1(O)C(=O)CO [Vamorolone, reference compound]
- collagen deposition (collagen area ratio) [2, 10]: significantly reduced collagen deposition
- macrophage levels (F4/80 macrophage marker, muscle inflammation) [2, 10]: significantly reduced macrophage levels
- number of centrally nucleated fibers (HE staining) [2, 10]: significantly reduced
- serum creatine kinase level [2, 10]: significantly reduced the creatine kinase level
- rotarod time [2, 10]: increased
- grip strength [2, 10]: increased significantly; also recorded: marked increase; also recorded: significantly elevated

Structure (SMILES): CCc1cc(/C(C)=N/OCc2ccc(-c3ccccc3)c(C)c2)ccc1CNCCCC(=O)O [Compound 32, (E)-4-((2-ethyl-4-(1-((2-methyl-[1,1'-biphenyl]-4-yl)methoxy)imino)ethyl)benzyl)aminobutyric acid]
- EC50 [4]: 110 ± 6.85 nM

Structure (SMILES): C/C(=N\OCc1ccc(C2CCCCC2)c(C(F)(F)F)c1)c1ccc(CNCCC(=O)O)cc1 [Compound 10, (E)-3-((4-((1-((4-cyclohexyl-3-(trifluoromethyl)benzyl)oxy)imino)ethyl)benzyl)amino)propanoic acid]
- EC50 [4]: 160 ± 4.9 nM
- EC50 [5]: 262 ± 37.3 nM

Structure (SMILES): CCc1cc(/C(C)=N/OCc2ccc(C3CCCC3)c(C(F)(F)F)c2)ccc1CN1CC(C(=O)O)C1 [Compound 17]
- EC50 [4]: 95.6 ± 42.1 nM
- EC50 [6]: 2.21 ± 0.58 nM

Structure (SMILES): C/C(=N\OCc1ccc(C2CCCCC2)c(C(F)(F)F)c1)c1ccc(CN2CC(C(=O)O)C2)c(C)c1 [Compound 18]
- EC50 [4]: 63.1 ± 21.8 nM
- EC50 [5]: 266 ± 62.8 nM
- EC50 [6]: 2.95 ± 0.69 nM

Structure (SMILES): CCc1cc(/C(C)=N/OCc2ccc(C3CCCCC3)c(C(F)(F)F)c2)ccc1CN1CC(C(=O)O)C1 [BAF312, reference compound]
- collagen deposition (collagen area ratio) ([7]; after administration): significantly reduced collagen deposition
- serum creatine kinase level ([7]; after treatment): significantly reduced
- body weight gain trend ([7]; compared with the model group): no difference
- EC50 [4]: 157 nM
- S1PR4 internalization (expression of S1PR4 receptor on the cell surface) [1]: cannot induce S1PR4 internalization
- collagen deposition (collagen area ratio) [8]: no difference
- macrophage content (F4/80 immunofluorescence, muscle inflammation) [8]: no improvement
- number of centrally nucleated fibers (HE staining) [8]: significantly reduced
- serum creatine kinase level ([8]; after treatment): no such effect
- body weight growth trend ([8]; compared with the model group): no difference
- EC50 [6]: 1.04 nM

Structure (SMILES): CCCCCCCCCCCCC/C=C/[C@@H](O)[C@@H](N)COP(=O)(O)O [Compound S1P, sphingosine 1-phosphate, reference compound]
- S1PR4 internalization (expression of S1PR4 receptor on the cell surface) [1]: can induce S1PR4 internalization
